According to BindingDB's records for doi:10.1021/jm800669s (Abbott Laboratories, 2008):

Target: Bcl-2-like protein 1 (Bcl-XL) (Homo sapiens) (UniProt Q07817)
Assay: Displacement of fluorescein labeled BAD peptide from Bcl-XL by fluorescence polarization assay

Sequence of Bcl-2-like protein 1 (Bcl-XL) (Homo sapiens) (Q07817 whole entry, looked up): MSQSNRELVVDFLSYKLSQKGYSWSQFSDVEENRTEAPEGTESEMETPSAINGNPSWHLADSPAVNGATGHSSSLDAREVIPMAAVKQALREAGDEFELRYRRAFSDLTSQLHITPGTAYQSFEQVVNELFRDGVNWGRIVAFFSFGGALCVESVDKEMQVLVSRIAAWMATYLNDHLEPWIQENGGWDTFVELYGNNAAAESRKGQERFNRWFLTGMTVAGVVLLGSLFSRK

Ki [nM]	SMILES
14	CN(C)CC[C@H](CSc1ccccc1)Nc1ccc(S(=O)(=O)NC(=O)c2ccc(N3CCN(Cc4ccccc4-c4ccc(Cl)cc4)CC3)cc2)cc1 [(R)-4-(4-((4'-Chlorobiphenyl-2-yl)methyl)piperazin-1-yl)-N-(4-(4-(dimethylamino)-1-(phenylthio)butan-2-ylamino)phenylsulfonyl)benzamide]
1.4	CN(C)CC[C@H](CSc1ccccc1)Nc1ccc(S(=O)(=O)NC(=O)c2ccc(N3CCN(CC4=C(c5ccc(Cl)cc5)CCC(C)(C)C4)CC3)cc2)cc1[N+](=O)[O-] [(R)-4-(4-((2-(4-Chlorophenyl)-5,5-dimethylcyclohex-1-enyl)methyl)piperazin-1-yl)-N-(4-(4-(dimethylamino)-1-(phenylthio)butan-2-ylamino)-3-nitrophenylsulfonyl)benzamide]
